Source: PubChem BioAssay (NCI)
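In this assay, cells in 96-well plates receive the compound at five concentrations for 48 hours. Endpoints are linearly interpolated between the surrounding concentrations. TGI is the concentration that stops growth completely.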

Legend:
Assay in all cases: NCI-60 cell line screen, 48 h
OVCAR-4 ovarian = test system: OVCAR-4 ovarian
K-562 leukemia = test system: K-562 leukemia
HOP-92 NSCLC = test system: HOP-92 NSCLC
ACHN renal = test system: ACHN renal
TK-10 renal = test system: TK-10 renal
SNB-19 CNS = test system: SNB-19 CNS
HL-60(TB) leukemia = test system: HL-60(TB) leukemia
CCRF-CEM leukemia = test system: CCRF-CEM leukemia
COLO 205 colon = test system: COLO 205 colon
MDA-MB-231 breast = test system: MDA-MB-231 breast
OVCAR-3 ovarian = test system: OVCAR-3 ovarian
SK-MEL-5 melanoma = test system: SK-MEL-5 melanoma
HCC-2998 colon = test system: HCC-2998 colon
A549 NSCLC = test system: A549 NSCLC
U251 CNS = test system: U251 CNS
MDA-MB-435 = test system: MDA-MB-435
SK-MEL-28 melanoma = test system: SK-MEL-28 melanoma
MALME-3M melanoma = test system: MALME-3M melanoma
DU-145 prostate = test system: DU-145 prostate
NCI-H460 lung = test system: NCI-H460 lung
MOLT-4 leukemia = test system: MOLT-4 leukemia
SR leukemia = test system: SR leukemia
BT-549 breast = test system: BT-549 breast
NCI/ADR-RES ovarian = test system: NCI/ADR-RES ovarian
SF-295 CNS = test system: SF-295 CNS
SK-MEL-2 melanoma = test system: SK-MEL-2 melanoma
UACC-257 melanoma = test system: UACC-257 melanoma
M14 melanoma = test system: M14 melanoma
EKVX NSCLC = test system: EKVX NSCLC
MCF7 breast = test system: MCF7 breast
HT29 colon = test system: HT29 colon
OVCAR-8 ovarian = test system: OVCAR-8 ovarian
UO-31 renal = test system: UO-31 renal
IGROV1 ovarian = test system: IGROV1 ovarian
SW-620 colon = test system: SW-620 colon
MDA-N = test system: MDA-N
PC-3 prostate = test system: PC-3 prostate
HCT-116 colon = test system: HCT-116 colon
HOP-62 NSCLC = test system: HOP-62 NSCLC
KM12 colon = test system: KM12 colon
NCI-H23 lung = test system: NCI-H23 lung
CAKI-1 renal = test system: CAKI-1 renal
786-0 renal = test system: 786-0 renal
LOX IMVI melanoma = test system: LOX IMVI melanoma
HCT-15 colon = test system: HCT-15 colon
RPMI-8226 leukemia = test system: RPMI-8226 leukemia
SN12C renal = test system: SN12C renal
OVCAR-5 ovarian = test system: OVCAR-5 ovarian
SF-539 CNS = test system: SF-539 CNS
RXF 393 renal = test system: RXF 393 renal
HS 578T breast = test system: HS 578T breast
A498 renal = test system: A498 renal
NCI-H226 lung = test system: NCI-H226 lung
NCI-H522 lung = test system: NCI-H522 lung
SNB-75 CNS = test system: SNB-75 CNS
UACC-62 melanoma = test system: UACC-62 melanoma
SK-OV-3 ovarian = test system: SK-OV-3 ovarian
T-47D breast = test system: T-47D breast
SF-268 CNS = test system: SF-268 CNS

`O=S1(=O)OCCOS(=O)(=O)C1S(=O)(=O)c1ccc2ccccc2c1` showed a TGI (OVCAR-4 ovarian) of over 100 µM, a TGI (K-562 leukemia) of over 100 µM and a TGI (HOP-92 NSCLC) of over 100 µM. For the same compound, the TGI (ACHN renal) was over 100 µM, the TGI (TK-10 renal) was over 100 µM and the TGI (SNB-19 CNS) was over 100 µM. For the same compound, the TGI (HL-60(TB) leukemia) was over 100 µM, the TGI (CCRF-CEM leukemia) was over 100 µM and the TGI (COLO 205 colon) was over 100 µM. The TGI (MDA-MB-231 breast) was over 100 µM, the TGI (OVCAR-3 ovarian) was over 100 µM and the TGI (SK-MEL-5 melanoma) was over 100 µM. The TGI (HCC-2998 colon) was over 100 µM, the TGI (A549 NSCLC) was over 100 µM and the TGI (U251 CNS) was over 100 µM. For the same compound, the TGI (MDA-MB-435) was over 100 µM, the TGI (SK-MEL-28 melanoma) was over 100 µM and the TGI (MALME-3M melanoma) was over 100 µM. The TGI (DU-145 prostate) was over 100 µM, the TGI (NCI-H460 lung) was over 100 µM and the TGI (MOLT-4 leukemia) was over 100 µM. The TGI (SR leukemia) was over 100 µM, the TGI (BT-549 breast) was over 100 µM and the TGI (NCI/ADR-RES ovarian) was over 100 µM. For the same compound, the TGI (SF-295 CNS) was over 100 µM, the TGI (SK-MEL-2 melanoma) was over 100 µM and the TGI (UACC-257 melanoma) was over 100 µM. It also gave a TGI (M14 melanoma) of over 100 µM, a TGI (EKVX NSCLC) of over 100 µM and a TGI (MCF7 breast) of over 100 µM. The TGI (HT29 colon) was over 100 µM, the TGI (OVCAR-8 ovarian) was over 100 µM and the TGI (UO-31 renal) was over 100 µM. The TGI (IGROV1 ovarian) was over 100 µM, the TGI (SW-620 colon) was over 100 µM and the TGI (MDA-N) was over 100 µM. The TGI (PC-3 prostate) was over 100 µM, the TGI (HCT-116 colon) was over 100 µM and the TGI (HOP-62 NSCLC) was over 100 µM. The TGI (KM12 colon) was over 100 µM, the TGI (NCI-H23 lung) was over 100 µM and the TGI (CAKI-1 renal) was over 100 µM. It also gave a TGI (786-0 renal) of over 100 µM, a TGI (LOX IMVI melanoma) of over 100 µM and a TGI (HCT-15 colon) of over 100 µM. The TGI (RPMI-8226 leukemia) was over 100 µM, the TGI (SN12C renal) was over 100 µM and the TGI (OVCAR-5 ovarian) was over 100 µM.
For `Cc1cc2c(cc1Cl)SC(NNC(=O)c1ccco1)=NS2(=O)=O`, the TGI (OVCAR-4 ovarian) was over 10 µM, the TGI (K-562 leukemia) was over 10 µM and the TGI (ACHN renal) was over 10 µM. It also gave a TGI (SF-539 CNS) of over 10 µM, a TGI (TK-10 renal) of over 10 µM and a TGI (SNB-19 CNS) of over 10 µM. It also gave a TGI (HL-60(TB) leukemia) of over 10 µM, a TGI (CCRF-CEM leukemia) of over 10 µM and a TGI (RXF 393 renal) of over 10 µM. For the same compound, the TGI (HS 578T breast) was over 10 µM, the TGI (COLO 205 colon) was over 10 µM and the TGI (MDA-MB-231 breast) was over 10 µM. The TGI (A498 renal) was over 10 µM, the TGI (OVCAR-3 ovarian) was over 10 µM and the TGI (SK-MEL-5 melanoma) was over 10 µM. The TGI (HCC-2998 colon) was over 10 µM, the TGI (A549 NSCLC) was over 10 µM and the TGI (U251 CNS) was over 10 µM. For the same compound, the TGI (MDA-MB-435) was over 10 µM, the TGI (SK-MEL-28 melanoma) was over 10 µM and the TGI (MALME-3M melanoma) was over 10 µM. It also gave a TGI (DU-145 prostate) of over 10 µM, a TGI (NCI-H226 lung) of over 10 µM and a TGI (NCI-H460 lung) of over 10 µM. It also gave a TGI (MOLT-4 leukemia) of over 10 µM, a TGI (NCI-H522 lung) of over 10 µM and a TGI (BT-549 breast) of over 10 µM. For the same compound, the TGI (NCI/ADR-RES ovarian) was over 10 µM, the TGI (SF-295 CNS) was over 10 µM and the TGI (SNB-75 CNS) was over 10 µM. The TGI (SK-MEL-2 melanoma) was over 10 µM, the TGI (UACC-257 melanoma) was over 10 µM and the TGI (M14 melanoma) was over 10 µM. The TGI (EKVX NSCLC) was over 10 µM, the TGI (MCF7 breast) was over 10 µM and the TGI (UACC-62 melanoma) was over 10 µM. For the same compound, the TGI (HT29 colon) was over 10 µM, the TGI (OVCAR-8 ovarian) was over 10 µM and the TGI (UO-31 renal) was over 10 µM. It also gave a TGI (IGROV1 ovarian) of over 10 µM, a TGI (SK-OV-3 ovarian) of over 10 µM and a TGI (SW-620 colon) of over 10 µM. The TGI (MDA-N) was over 10 µM, the TGI (PC-3 prostate) was over 10 µM and the TGI (HCT-116 colon) was over 10 µM. It also gave a TGI (HOP-62 NSCLC) of over 10 µM, a TGI (KM12 colon) of over 10 µM and a TGI (T-47D breast) of over 10 µM. The TGI (NCI-H23 lung) was over 10 µM, the TGI (CAKI-1 renal) was over 10 µM and the TGI (786-0 renal) was over 10 µM. The TGI (SF-268 CNS) was over 10 µM, the TGI (LOX IMVI melanoma) was over 10 µM and the TGI (HCT-15 colon) was over 10 µM. It also gave a TGI (RPMI-8226 leukemia) of over 10 µM, a TGI (SN12C renal) of over 10 µM and a TGI (OVCAR-5 ovarian) of over 10 µM.
